“And” between values parts separate entries of the source, which are not always exact repeats. Equal entries are not always repeated.
Target: human P2X3 receptor (Homo sapiens (Human), UniProt P56373)
Assay: Evaluation of human P2X3 receptor inhibitory activity (Fluo-3 calcium fluorescence, FDSS 3000, ATP stimulation);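 note: stimulus was 50 nM ATP with fluorescence followed for 3 min, and the response per well was peak post-ATP fluorescence divided by the reading at measurement start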
Assay type: cell-based
[1] = human P2X3 receptor, Test Example 1
[2] = C6BU-1 cells stably expressing human P2X3 receptor, Fluo-3 fluorescence, FDSS 3000
[3] = C6BU-1 cells stably expressing human P2X3 receptor

Sequence of human P2X3 receptor (P56373 whole entry): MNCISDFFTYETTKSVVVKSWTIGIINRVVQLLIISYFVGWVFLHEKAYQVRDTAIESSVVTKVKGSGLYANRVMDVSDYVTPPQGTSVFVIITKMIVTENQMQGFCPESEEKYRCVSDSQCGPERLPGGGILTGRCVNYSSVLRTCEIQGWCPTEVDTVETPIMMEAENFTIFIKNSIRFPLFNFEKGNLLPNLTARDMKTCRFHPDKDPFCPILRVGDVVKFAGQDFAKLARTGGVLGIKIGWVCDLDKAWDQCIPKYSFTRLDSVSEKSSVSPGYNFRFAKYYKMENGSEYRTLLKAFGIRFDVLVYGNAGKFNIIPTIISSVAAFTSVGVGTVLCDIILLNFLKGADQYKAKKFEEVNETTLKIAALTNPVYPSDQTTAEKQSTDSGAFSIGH

For `CCn1c(=O)[nH]/c(=N\c2ccc(Oc3ccc(NC(=O)NC)nc3)cc2)n(Cc2ccc(Cl)cc2)c1=O` [Compound I-2426], the IC50 [1] was 11 nM.
For `C=Cc1ccc(Cn2c(=O)n(C[C@H](C)C(=O)OC)c(=O)[nH]/c2=N\c2ccc(OC(C)C)cc2)cc1` [Compound I-1131], the IC50 [2] was 105 nM.
Work on `CC[C@@H](CC(=O)O)n1c(=O)[nH]/c(=N\c2ccc(OC(C)C)c(C)c2)n(Cc2ccc(Cl)cc2)c1=O` [Compound I-0798] yielded an IC50 [3] of 465 nM.
`CC(C)Oc1ccc(/N=c2\[nH]c(=O)n(C[C@@H]3COC(C)(C)O3)c(=O)n2Cc2ccc(Cl)cc2)cc1Cl` [Compound I-0614] showed an IC50 [3] of 10 nM.
Work on `CC(C)Oc1ccc(/N=c2\[nH]c(=O)n(CC(=O)NO)c(=O)n2Cc2ccc(Cl)cc2)cc1F` [Compound I-0636] yielded an IC50 [3] of 10 nM.
In the case of `CCn1c(=O)[nH]/c(=N\c2ccc(Oc3ncc(C(=O)O)o3)cc2)n(Cc2ccc(Cl)cc2)c1=O` [Compound I-2189], the IC50 [3] is reported as 47 nM and 51 nM.
Compound `Cc1ccc(Cn2c(=O)n(CCC(=O)O)c(=O)[nH]/c2=N\c2cccc(C(F)(F)F)c2C)cc1` [Compound I-2085] has an IC50 [3] of 852 nM.
`CC[C@@H](C)Oc1ccc(/N=c2\[nH]c(=O)n(CCC(=O)O)c(=O)n2Cc2ccc(C)cc2)cc1` [Compound I-1028] gave an IC50 [2] of 78 nM.
`COc1cc(/N=c2\[nH]c(=O)n(CCC(=O)O)c(=O)n2Cc2ccc(C)cc2)ccc1OC(C)C` [Compound I-1264] showed an IC50 [3] of 31 nM.
`Cc1ccc(Cn2c(=O)n(C[C@H](C)C(=O)O)c(=O)[nH]/c2=N\c2ccc(CCC3CC3)cc2)cc1` [Compound I-1214] gave an IC50 [3] of 70 nM.
With `Cc1ccc(Cn2c(=O)n([C@H](C)[C@H](C)C(=O)O)c(=O)[nH]/c2=N\c2ccc(OC3CCC3)cc2)cc1` [Compound I-1457] the IC50 [3] was 14 nM.
Work on `CCn1c(=O)[nH]/c(=N\c2ccc(Oc3cncc(C(=O)O)n3)cc2)n(Cc2ccc(Cl)cc2)c1=O` [Compound I-2282] yielded an IC50 [1] of less than 4 nM.
Work on `COC(=O)[C@H](C)[C@H](C)n1c(=O)[nH]/c(=N\c2ccc(OC3CCC3)cc2)n(Cc2ccc(Cl)cc2)c1=O` [Compound I-1378] yielded an IC50 [3] of 12 nM.
In the case of `O=c1[nH]/c(=N\c2ccc(Oc3cccc(F)n3)cc2)n(Cc2ccc(Cl)cc2)c(=O)n1CCO` [Compound I-2516], the IC50 [1] is reported as 9 nM.
In the case of `CCc1oc2ccc(/N=c3\[nH]c(=O)n(C[C@H](C)C(=O)O)c(=O)n3Cc3ccc(Cl)cc3)cc2c1C` [Compound I-1465], the IC50 [3] is reported as 6 nM.
With `CCn1c(=O)[nH]/c(=N\c2ccc(Oc3cc(C(N)=O)ccn3)cc2)n(Cc2ccc(Cl)cc2)c1=O` [Compound I-2165] the IC50 [3] was 979 nM.
`CCn1c(=O)[nH]/c(=N\c2ccc(Oc3cccc(/C=C/C(=O)O)c3)cc2)n(Cc2ccc(C)cc2)c1=O` [Compound I-2344] was tested, and the IC50 [1] was 3 nM.
`COC(=O)[C@@H](C)Cn1c(=O)[nH]/c(=N\c2ccc(CC(C)C)c(OC)c2)n(Cc2ccc(Cl)cc2)c1=O` [Compound I-1247] gave an IC50 [3] of 28 nM.
Compound `Cc1ccc(Cn2c(=O)n(CCCCC(=O)O)c(=O)[nH]/c2=N\c2ccc(OC(C)C)c(Cl)c2)cc1` [Compound I-1878] has an IC50 [2] of 10 nM.
For `CCOC(=O)CCn1c(=O)[nH]/c(=N\c2ccc(Oc3cccc(F)c3)cc2)n(Cc2ccc(Cl)cc2)c1=O` [Compound I-1937], the IC50 [3] was 22 nM.
`CCc1nc2ccc(/N=c3\[nH]c(=O)n(C[C@H](C)C(=O)O)c(=O)n3Cc3ccc(Cl)cc3)cc2o1` [Compound I-1382] showed an IC50 [3] of 257 nM.
`CCn1c(=O)[nH]/c(=N\c2ccc(Oc3cccc(CC(=O)O)c3)cc2)n(Cc2ccc(Cl)cc2)c1=O` [Compound I-1894] was tested, and the IC50 [2] was 23 nM.
Work on `CCOC(=O)C1(Cn2c(=O)[nH]/c(=N\c3ccc(OCC)c(Cl)c3)n(Cc3ccc(Cl)cc3)c2=O)CC1` [Compound I-0918] yielded an IC50 [2] of 14 nM.
`Cc1ccc(Cn2c(=O)n(C)c(=O)[nH]/c2=N\c2ccc(Oc3cncc(C(N)=O)n3)cc2)cc1` [Compound I-2473] was tested, and the IC50 [1] was 8 nM.
Work on `COC(=O)C(C)(C)Cn1c(=O)[nH]/c(=N\c2ccc3nc(C)sc3c2)n(Cc2ccc(Cl)cc2)c1=O` [Compound I-1569] yielded an IC50 [2] of 4 nM.
For `CCOC(=O)CCCn1c(=O)[nH]/c(=N\c2ccc3nc(C)sc3c2)n(Cc2ccc(C)cc2)c1=O` [Compound I-2123], the IC50 [3] was 4 nM.
In the case of `O=c1[nH]/c(=N\c2ccc(Oc3ncccn3)cc2)n(Cc2ccc(Cl)cc2)c(=O)n1CC(CO)CO` [Compound I-2544], the IC50 [1] is reported as 11 nM.
`CC1Cc2cc(/N=c3\[nH]c(=O)n(C[C@H](C)C(=O)O)c(=O)n3Cc3ccc(Cl)cc3)ccc2O1` (stereo partly drawn) [Compound I-1466] showed an IC50 [3] of 121 nM.
Compound `CCn1c(=O)[nH]/c(=N\c2ccc(Oc3cccc(C(=O)O)n3)cc2)n(Cc2ccc(F)cc2)c1=O` [Compound I-2496] has an IC50 [1] of 30 nM.
`CC(=O)N(C)CCCn1c(=O)[nH]/c(=N\c2ccc(OC(C)C)c(F)c2)n(Cc2ccc(Cl)cc2)c1=O` [Compound I-2317] was tested, and the IC50 [1] was 3 nM.
Work on `CCn1c(=O)[nH]/c(=N\c2ccc(Oc3ccnc(C(=O)O)c3)c(OC)c2)n(Cc2ccc(Cl)cc2)c1=O` [Compound I-2295] yielded an IC50 [1] of less than 4 nM.
Work on `C/C=C/c1ccc(Cn2c(=O)n(C[C@H](C)C(=O)OC)c(=O)[nH]/c2=N\c2ccc(OC(C)C)cc2)cc1` [Compound I-1141] yielded an IC50 [2] of 911 nM.
`CC(C)Oc1ccc(/N=c2\[nH]c(OCC(N)=O)nc(=O)n2Cc2ccc(Cl)cc2)cc1F` [Compound I-0587] gave an IC50 [3] of 299 nM.
`CCn1c(=O)[nH]/c(=N\c2ccc(Oc3cc(C#N)ccn3)cc2)n(Cc2ccc(Cl)cc2)c1=O` [Compound I-2227] showed an IC50 [1] of 4 nM.
`Cc1ccc(Cn2c(=O)n(C[C@H](C)C(=O)O)c(=O)[nH]/c2=N\c2ccc(OCC(C)(C)C)cc2)cc1` [Compound I-1064] gave an IC50 [2] of 257 nM.
Work on `Cc1ccc(Cn2c(=O)n(CC(C)(C)C(=O)O)c(=O)[nH]/c2=N\c2ccc3nc(C)sc3c2)cc1` [Compound I-1577] yielded an IC50 [2] of 7 nM.
`CNC(=O)CCn1c(=O)[nH]/c(=N\c2ccc3nc(C)sc3c2)n(Cc2ccc(Cl)cc2)c1=O` [Compound I-1543] showed an IC50 [1] of 6 nM.
`CCn1c(=O)[nH]/c(=N\c2ccc(Oc3ccnc(C(N)=O)c3)cc2)n(CC2CCC3(CC2)CC3)c1=O` [Compound I-2176] showed an IC50 [3] of 4 nM.
With `Cn1c(=O)[nH]/c(=N\c2ccc(Oc3cccc(/C=C/C(=O)O)c3)cc2)n(Cc2ccc(Cl)cc2)c1=O` [Compound I-2364] the IC50 [1] was 8 nM.
`CCn1c(=O)[nH]/c(=N\c2ccc([S+]([O-])c3ccc(C(=O)O)cc3)cc2)n(Cc2ccc(Cl)cc2)c1=O` (stereo not drawn) [Compound I-2631] was tested, and the IC50 [1] was 475 nM.
With `CC(C)Cc1ccc(/N=c2\[nH]c(=O)n(C[C@H](C)C(=O)O)c(=O)n2Cc2ccc(Cl)cc2)cc1Cl` [Compound I-1372] the IC50 [3] was 5 nM.
Work on `C=Cc1cc(/N=c2\[nH]c(=O)n(CCC(=O)OCC)c(=O)n2Cc2ccc(C)cc2)ccc1OC(C)C` [Compound I-1190] yielded an IC50 [3] of 5 nM.
`COC(=O)[C@@H](C)Cn1c(=O)[nH]/c(=N\c2cnc(OC3CCCC3)c(Cl)c2)n(Cc2ccc(C)cc2)c1=O` [Compound I-1475] showed an IC50 [3] of 39 nM.
For `Cc1nc2ccc(/N=c3\[nH]c(=O)n(CCO)c(=O)n3CC3CCC(C)CC3)cc2s1` (stereo not drawn) [Compound I-2098], the IC50 [3] was 4 nM.
For `Cn1c(=O)[nH]/c(=N\c2ccc(Oc3cccc(C#N)n3)c(F)c2)n(Cc2ccc(Cl)cc2)c1=O` [Compound I-2493], the IC50 [1] was 5 nM.
For `CC[C@@H](C)Oc1ccc(/N=c2\[nH]c(=O)n(CCCO)c(=O)n2Cc2ccc(Cl)cc2)cc1Cl` [Compound I-1623], the IC50 [2] was 7 nM.
`CCc1cc2cc(/N=c3\[nH]c(=O)n(C[C@H](C)C(=O)OC)c(=O)n3Cc3ccc(Cl)cc3)ccc2o1` [Compound I-1765] gave an IC50 [2] of 9 nM.
In the case of `CC(C)Oc1ccc(/N=c2\[nH]c(=O)n(C(C)(C)CC(=O)O)c(=O)n2Cc2ccc(Cl)cc2)cc1Cl` [Compound I-0817], the IC50 [3] is reported as 27 nM.

From patent US9718790B2, “Triazine derivative and pharmaceutical composition having an analgesic activity comprising the same” (SHIONOGI & CO., LTD., priority 2010, dated 2017)
